Among the data in ChEMBL document CHEMBL2021761, “Imidazonaphthyridine systems (part 2): Functionalization of the phenyl ring linked to the pyridine pharmacophore and its replacement by a pyridinone ring produces intriguing differences in cytocidal activity” (Eur J Med Chem, 2012) are pKa, GI50 and inhibition values, retold here.

The source made the active and inactive calls. The rule behind the calls is not given here.

Series [1] in a line: Dissociation constant, pKa of the compound. In kind it is physicochemical.
A further series relates to MCF7. The series can be described thus: Cytocidal activity against human MCF7 cells assessed as growth inhibition after 48 hrs by SRB assay. Particulars: MCF7, 48 h. In kind it is functional.
For a further series, the system named is HT-1080. The experiment in a line: Cytocidal activity against human HT1080 cells assessed as growth inhibition after 48 hrs by SRB assay. In kind it is functional. The settings on record: HT-1080, 48 h.
The test system of a further series is M21. The series can be described thus: Cytocidal activity against human M21 cells assessed as growth inhibition after 48 hrs by SRB assay. The settings on record: M21, 48 h. In kind it is functional.
Series [2] addresses T1, DNA topoisomerase 1 (Homo sapiens) (UniProt P11387).
T1 sequence (whole entry): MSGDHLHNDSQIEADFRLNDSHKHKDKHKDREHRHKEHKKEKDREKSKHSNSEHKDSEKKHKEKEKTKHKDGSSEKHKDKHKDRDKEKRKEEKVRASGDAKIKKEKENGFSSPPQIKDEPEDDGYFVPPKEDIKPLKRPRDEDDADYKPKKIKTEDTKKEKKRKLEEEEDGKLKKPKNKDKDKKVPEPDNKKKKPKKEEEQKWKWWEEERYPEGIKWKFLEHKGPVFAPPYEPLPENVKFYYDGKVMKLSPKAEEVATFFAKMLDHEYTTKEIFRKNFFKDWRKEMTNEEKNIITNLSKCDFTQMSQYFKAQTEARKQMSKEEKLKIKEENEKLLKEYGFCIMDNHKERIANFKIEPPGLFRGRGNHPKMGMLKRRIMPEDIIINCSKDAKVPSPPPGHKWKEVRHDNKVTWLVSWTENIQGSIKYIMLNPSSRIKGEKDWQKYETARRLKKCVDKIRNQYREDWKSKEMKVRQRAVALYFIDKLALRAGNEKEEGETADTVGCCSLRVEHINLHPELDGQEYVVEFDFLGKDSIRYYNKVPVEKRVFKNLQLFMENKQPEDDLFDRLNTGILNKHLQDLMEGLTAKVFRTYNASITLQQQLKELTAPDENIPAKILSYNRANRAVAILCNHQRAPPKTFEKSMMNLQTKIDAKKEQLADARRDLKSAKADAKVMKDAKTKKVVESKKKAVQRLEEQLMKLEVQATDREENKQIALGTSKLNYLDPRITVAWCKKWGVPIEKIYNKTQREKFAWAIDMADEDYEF
The series can be described thus: Inhibition of recombinant human topoisomerase 1-mediated unwinding of supercoiled plasmid DNA assessed as DNA intercalation at 50 uM after 2 hrs by gel electrophoresis.

Series [3] deals with T1, DNA topoisomerase 1 (Homo sapiens). The series can be described thus: Inhibition of recombinant human topoisomerase 1-mediated unwinding of supercoiled plasmid DNA assessed as DNA intercalation at 100 to 200 uM after 2 hrs by gel electrophoresis.
The test system of another series is HT-29. The series can be described thus: Cytocidal activity against human HT-29 cells assessed as growth inhibition after 48 hrs by SRB assay. In kind it is functional. The settings on record: HT-29, 48 h.
Series [4] deals with T1, DNA topoisomerase 1 (Homo sapiens). The series can be described thus: Inhibition of recombinant human topoisomerase 1-mediated unwinding of supercoiled plasmid DNA assessed as DNA intercalation at 25 uM after 2 hrs by gel electrophoresis.
Series [5] has the same target. The series can be described thus: Inhibition of recombinant human topoisomerase 1-mediated unwinding of supercoiled plasmid DNA assessed as formation of nicked open circular DNA at 12.5 to 100 uM after 2 hrs by gel electrophoresis.
Series [6] has the same target. The series can be described thus: Inhibition of recombinant human topoisomerase 1-mediated unwinding of supercoiled plasmid DNA assessed as DNA intercalation at 12.5 to 100 uM by gel electrophoresis. Particulars: TDE = time-dependent effect.
For series [7] the target is unchanged. The experiment in a line: Inhibition of recombinant human topoisomerase 1-mediated unwinding of supercoiled plasmid DNA assessed as DNA intercalation after 2 hrs by gel electrophoresis.

In the case of `c1ccc2c(c1)CCc1cc3ccn4ccnc4c3nc1-2`, the pKa in series [1] was 2.43.
As to `O=C1CCCc2nc3c(ccn4ccnc34)cc21`, the pKa in series [1] was determined as 2.
The same measure, in the same setting: the figure for `CCOC(=O)C1CCc2nc3c(ccn4ccnc34)cc2C1` (centres undefined) is 4.08.
Consider `Cc1ccc(-c2ccc3ccn4ccnc4c3n2)cc1`, for which the GI50 in the series with MCF7 worked out at 7.6 µM; with HT-1080, 10.7 µM; in the series on M21 it was 6.4 µM; in the series on HT-29, 5.1 µM. Further, the inhibition result in series [2], in series [3] and in series [4] was “inactive” in each case.
On to `CCOC(=O)c1c[nH]c2ccn3cc(-c4cccc(OC)c4)nc3c2c1=O`, for which the GI50 in the series with MCF7 was 98 µM; in the series with HT-1080, over 100 µM; in the series on M21 it was 93.4 µM; in the series on HT-29, 71.1 µM.
Regarding `CCOC(=O)c1c[nH]c2ccn3ccnc3c2c1=O`, the concentration for 50% growth inhibition (GI50) in the series on MCF7 came out at 0.3 µM; with HT-1080, 0.3 µM; in the series on M21, 0.8 µM; in the series with HT-29, 4.5 µM. In addition, the inhibition result in series [2], in series [3] and in [4] was “inactive” each time.
`COc1ccc(-c2c[nH]c3ccn4ccnc4c3c2=O)cc1`: the GI50 in the series with MCF7 turned out to be 1.1 µM; in the series with HT-1080, 1.2 µM; in the series with M21 it was 1.3 µM; with HT-29, 8.6 µM. In addition, the inhibition entry in [2], in series [3] and in [4] was “inactive” each time.
With `COc1cc(-c2c[nH]c3c(ccn4ccnc34)c2=O)cc(OC)c1OC`, the GI50 with MCF7, with HT-1080, with M21 and with HT-29 was over 100 µM throughout.
`Cc1cc2ccn3ccnc3c2nc1C` displayed a pKa in series [1] of 4.63.
As for `COc1cc(NS(C)(=O)=O)ccc1Nc1c2ccccc2nc2ccccc12` [AMSACRINE], the 50% growth inhibitory concentration (GI50) in the series with MCF7 turned out to be 5.6 µM; in the series with HT-1080, 1.6 µM.
Take `CCOC(=O)c1c[nH]c2c(ccn3cc(-c4cccc(OC)c4)nc23)c1=O`: the GI50 in the series on MCF7, in the series on HT-1080, in the series with M21 and in the series with HT-29 was over 100 µM in each case.
As for `CCOC(=O)c1c[nH]c2c(ccn3ccnc23)c1=O`, the GI50 in the series with MCF7, in the series on HT-1080, with M21 and in the series with HT-29 was over 100 µM each time.
Regarding `CCOC(=O)c1c[nH]c2c(ccn3cc(-c4ccccc4)nc23)c1=O`, the GI50 with MCF7, in the series on HT-1080, with M21 and in the series on HT-29 was over 100 µM each time.
As to `COc1cc(-c2c[nH]c3ccn4ccnc4c3c2=O)cc(OC)c1OC`, the GI50 stood at 71.9 µM with MCF7, 92.5 µM in the series on HT-1080, 82.7 µM with M21 and 62.7 µM in the series on HT-29.
Consider `CCOC(=O)c1c[nH]c2c(ccn3cc(C(C)C)nc23)c1=O`, for which the GI50 with MCF7, in the series with HT-1080, in the series on M21 and in the series on HT-29 was over 100 µM each time.
Take `O=c1c(-c2ccccc2)c[nH]c2c1ccn1ccnc21`: the GI50 in the series with MCF7, with HT-1080, in the series with M21 and in the series with HT-29 was over 100 µM throughout.
Consider `CCOC(=O)c1c[nH]c2ccn3cc(-c4ccccc4)nc3c2c1=O`, for which the concentration for 50% growth inhibition (GI50) worked out at 20.5 µM in the series with MCF7, 10.4 µM in the series on HT-1080, 13.4 µM with M21 and 21.6 µM with HT-29.
For `COc1cc(-c2ccc3ccn4ccnc4c3n2)cc(OC)c1OC`, the GI50 with MCF7 came out at 30.7 µM; with HT-1080, 29.2 µM; in the series on M21 it was 24.5 µM; in the series with HT-29, 27.8 µM. For the same molecule, the inhibition entry in [5] was “inactive”. The inhibition entry in [2] and in series [4] was “Active” in each case. Also, the inhibition entry in series [6] was “tde”.
Take `CCOC(=O)c1c[nH]c2ccn3cc(C)nc3c2c1=O`: the GI50 was 98.5 µM with MCF7, 72.9 µM with HT-1080, 88.5 µM with M21 and 63.2 µM in the series on HT-29.
With `c1ccc2c(c1)CCc1nc3c(ccn4ccnc34)cc1-2`, the pKa in series [1] worked out at 3.53.
Same read-out and setting: the figure for `c1ccc2cc3nc4c(ccn5ccnc45)cc3cc2c1` is 2.43.
Take `CCBr`: in series [7], the inhibition entry is “Active”.
As to `c1ccc(-c2ccc3ccn4ccnc4c3n2)cc1`, in series [5], the inhibition result is “inactive”. For the same molecule, in the series with HT-1080, the GI50 amounted to 54.7 µM. Moreover, the inhibition entry in series [2] and in series [4] was “Active” in each case. In addition, the inhibition result in series [6] is “tde”. For the same molecule, the pKa in series [1] amounted to 1.96.
In the case of `c1cn2ccc3cc4c(nc3c2n1)CCCC4`, the pKa in series [1] was found to be 4.59.
As for `COc1ccc(-c2ccc3ccn4ccnc4c3n2)cc1`, the GI50 was 6.9 µM with MCF7, 5.2 µM with HT-1080, 5 µM in the series on M21 and 5.1 µM in the series with HT-29. For the same molecule, the inhibition entry in [2] and in series [4] was “Active” in each case.
Turning to `CCOC(=O)c1c[nH]c2c(ccn3cc(C)nc23)c1=O`, the GI50 with MCF7, in the series on HT-1080, with M21 and in the series with HT-29 was over 100 µM in each case.
Take `O=c1c(-c2ccccc2)c[nH]c2ccn3ccnc3c12`: the GI50 in the series on MCF7 was 20 µM; in the series with HT-1080 it was 19.7 µM; with M21, 40.7 µM; in the series on HT-29, 34.2 µM.
The matching figures for `COc1ccc(-c2c[nH]c3c(ccn4ccnc34)c2=O)cc1`: over 100 µM, over 100 µM, over 100 µM and over 100 µM.
The matching figures for `CCOC(=O)c1c[nH]c2ccn3cc(C(C)C)nc3c2c1=O`: 37.3 µM, 22 µM, 26.9 µM and 43.7 µM.
As for `Clc1ccc(-c2ccc3ccn4ccnc4c3n2)cc1`, the GI50 came to 7.1 µM in the series with MCF7, 6.9 µM in the series with HT-1080, 4.7 µM in the series with M21 and 3.4 µM in the series on HT-29. Further, the inhibition result in [2] and in [4] was “Active” throughout.
In series [1], `Cc1ccc2ccn3ccnc3c2n1` came in with a pKa of 4.23.
